In the supplement of paper PMC8960247:
± gives the standard error.

How the values were obtained:
621-102 (TSC2-deficient) [1] = test: relative viability vs DMSO (fraction); higher = less cytotoxic; settings: serum: 0.1% FBS, 72 h
UMB1949 (TSC2-deficient) = test: as above; settings: serum: 0.1% FBS, 72 h;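 further: renal angiomyolipoma cell lines screened in 384-well plates, viability normalized per plate to DMSO-treated cells, each plate carrying 50 nM rapamycin and 1 µM staurosporine controls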
621-102 (TSC2-deficient) [2] = test: relative viability vs DMSO; higher = less cytotoxic; settings: serum: 10% FBS, 72 h
621-103 (TSC2-rescued) = test: as above; settings: serum: 10% FBS, 72 h

SMILES | relative viability (621-102 (TSC2-deficient) [1]; 0.0128 nM) | relative viability (621-102 (TSC2-deficient) [1]; 0.064 nM) | relative viability (621-102 (TSC2-deficient) [1]; 0.32 nM) | relative viability (621-102 (TSC2-deficient) [1]; 1.6 nM) | relative viability (621-102 (TSC2-deficient) [1]; 8 nM) | relative viability (621-102 (TSC2-deficient) [1]; 40 nM) | relative viability (621-102 (TSC2-deficient) [1]; 200 nM) | relative viability (621-102 (TSC2-deficient) [1]; 1000 nM) | relative viability (621-102 (TSC2-deficient) [1]; 5000 nM) | relative viability (UMB1949 (TSC2-deficient); 0.0128 nM) | relative viability (UMB1949 (TSC2-deficient); 0.064 nM) | relative viability (UMB1949 (TSC2-deficient); 0.32 nM) | relative viability (UMB1949 (TSC2-deficient); 1.6 nM) | relative viability (UMB1949 (TSC2-deficient); 8 nM) | relative viability (UMB1949 (TSC2-deficient); 40 nM) | relative viability (UMB1949 (TSC2-deficient); 200 nM) | relative viability (UMB1949 (TSC2-deficient); 1000 nM) | relative viability (UMB1949 (TSC2-deficient); 5000 nM) | relative viability (621-102 (TSC2-deficient) [2]; 0.0001 µM) | relative viability (621-102 (TSC2-deficient) [2]; 0.001 µM) | relative viability (621-102 (TSC2-deficient) [2]; 0.01 µM) | relative viability (621-102 (TSC2-deficient) [2]; 0.1 µM) | relative viability (621-102 (TSC2-deficient) [2]; 1 µM) | relative viability (621-102 (TSC2-deficient) [2]; 10 µM) | relative viability (621-103 (TSC2-rescued); 0.0001 µM) | relative viability (621-103 (TSC2-rescued); 0.001 µM) | relative viability (621-103 (TSC2-rescued); 0.01 µM) | relative viability (621-103 (TSC2-rescued); 0.1 µM) | relative viability (621-103 (TSC2-rescued); 1 µM) | relative viability (621-103 (TSC2-rescued); 10 µM)
CC(C)C[C@H](NC(=O)[C@H](Cc1ccccc1)NC(=O)c1cnccn1)B(O)O [Bortezomib] | 1.07 | 1.03 | 0.903 | 0.16 | 0.0107 | 0.00306 | 0.00178 | 0.000877 | 0.000659 | 1.02 | 0.99 | 1.02 | 0.62 | 0.0154 | 0.00739 | 0.0026 | 0.000806 | 0.000906 | 110 ± 1.3% | 102 ± 2.8% | 5.8 ± 0.15% | 3.06 ± 0.034% | 2.21 ± 0.16% | 1.87 ± 0.13% | 97.4 ± 1.6% | 90 ± 4.2% | 2.332 ± 0.012% | 1.43 ± 0.049% | 1.14 ± 0.0052% | 1.03 ± 0.066%
CC(C)C[C@@H](C(=O)N[C@H](C(=O)OC1CCCC1)c1ccccc1)[C@H](O)C(=O)NO [CHR-2797] | 0.86 | 0.866 | 0.628 | 0.884 | 0.614 | 0.512 | 0.414 | 0.345 | 0.144 | 1.06 | 0.998 | 0.978 | 1.02 | 0.982 | 0.804 | 0.875 | 0.595 | 0.0151 | 112 ± 1.6% | 116 ± 2.4% | 114.53 ± 0.03% | 102 ± 1.6% | 89.8 ± 1.5% | 82 ± 2.1% | 103 ± 2.1% | 105.3 ± 0.65% | 115 ± 1.4% | 111 ± 7.5% | 104.4 ± 0.14% | 89.6 ± 2.7%
Nc1nc(Cl)nc2c1ncn2[C@@H]1O[C@H](CO)[C@@H](O)[C@@H]1F [Clofarabine] | 1.11 | 0.982 | 1.02 | 0.905 | 0.929 | 0.0836 | 0.0188 | 0.0106 | 0.00741 | 1.06 | 0.989 | 1.02 | 1.05 | 1.05 | 0.404 | 0.00754 | 0.00286 | 0.00163 | 114 ± 4.2% | 104.4 ± 0.4% | 103 ± 2.5% | 96.69 ± 0.62% | 49.3 ± 1.3% | 51.8 ± 2.4% | 107 ± 2.7% | 101.98 ± 0.033% | 102.7 ± 0.28% | 91.6 ± 3.6% | 47.38 ± 0.098% | 46.8 ± 2.5%
CNC(=O)c1cc(Oc2ccc(NC(=O)Nc3cc(C(C)(C)C)nn3-c3ccc4ncccc4c3)c(F)c2)ccn1 [DCC-2036] | 1.65 | 1.68 | 1.69 | 1.63 | 1.59 | 1.62 | 1.43 | 0.931 | 0.0177 | 1.18 | 1.26 | 1.25 | 1.24 | 1.32 | 0.354 | 1.05 | 0.00706 | 0.00896 | 100 ± 5.8% | 97.14 ± 0.62% | 92.2 ± 4.6% | 87 ± 1.4% | 87.2 ± 2% | 9.801 ± 0.031% | 96.92 ± 0.83% | 98.2 ± 4.1% | 90.7 ± 1.8% | 69.51 ± 0.61% | 59.4 ± 0.26% | 9.01 ± 0.21%
